Target: Alpha-glucosidase (Saccharomyces cerevisiae S288c, UniProt P53341+P38158+P07265)
Test: Inhibition of Saccharomyces cerevisiae alpha-glucosidase using nitrophenol-alpha-D-glucopyranoside (pNPG) as substrate incubated for 15 mins
Assay type: protein assay

IC50	Compound
32.96 µM	Oc1ccc(/C=N/Nc2nnc3n2N=C(c2ccccc2)CS3)c(O)c1
> 250 µM	Fc1ccccc1/C=N/Nc1nnc2n1N=C(c1ccccc1)CS2
85.86 µM	COc1ccc(/C=N/Nc2nnc3n2N=C(c2ccccc2)CS3)cc1
55.42 µM	Oc1ccccc1/C=N/Nc1nnc2n1N=C(c1ccccc1)CS2

Reference: ChEMBL document CHEMBL5634160, “Synthesis, biological evaluation and action mechanism of 7H-[1,2,4] triazolo [3,4-b] [1,3,4] thiadiazine-phenylhydrazone derivatives as α-glucosidase inhibitors” (Eur J Med Chem, 2023)
